Data published in the supplement of paper PMC10307832.

Columns and labels:
Test in all cases: relative viability (nuclei count vs DMSO), 5 days (fraction); higher = more cells survive
[1] = system: HOP-62
How it was run: (§1)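 Values are medians from duplicate plates. Each reflects relative viability, defined as the nuclei count of treated wells over that of vehicle wells. Lung cancer cell lines in 1536-well plates were pin-tool dosed one day after seeding with one drug alone or with a fixed anchor-drug dose plus five library-drug doses (not always all listed) in √10 steps, then fixed, stained and imaged at 4× after 5 days.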

[2] = system: NCI-H2170
How it was run: as §1

[3] = system: LXF-289
How it was run: as §1

[4] = system: EKVX
How it was run: as §1

[5] = system: NCI-H1563
How it was run: as §1

[6] = system: NCI-H1666
How it was run: as §1

[7] = system: NCI-H2405
How it was run: as §1

[8] = system: UMC-11
How it was run: as §1

[9] = system: BEN
How it was run: as §1

[10] = system: HCC-827
How it was run: as §1

[11] = system: NCI-H838
How it was run: as §1

[12] = system: EPLC-272H
How it was run: as §1

[13] = system: LU99A
How it was run: as §1

[14] = system: ABC-1
How it was run: as §1

[15] = system: NCI-H3122
How it was run: as §1

[16] = system: NCI-H727
How it was run: as §1

[17] = system: NCI-H23
How it was run: as §1

[18] = system: SK-MES-1
How it was run: as §1

[19] = system: NCI-H358
How it was run: as §1

[20] = system: NCI-H1975
How it was run: as §1

[21] = system: NCI-H520
How it was run: as §1

[22] = system: NCI-H322M
How it was run: as §1

COCC1(CO)C(=O)C2CCN1CC2 (stereo not drawn) [PRIMA-1MET] + CCNC(=O)c1noc(-c2cc(C(C)C)c(O)cc2O)c1-c1ccc(CN2CCOCC2)cc1 [Luminespib] (partner 0.01 µM)
relative viability ([1]; first compound 0.2 µM): 0.989 | relative viability ([1]; first compound 0.6325 µM): 0.923 | relative viability ([1]; first compound 2 µM): 0.923 | relative viability ([1]; first compound 6.325 µM): 0.91 | relative viability ([1]; first compound 20 µM): 0.786 | relative viability ([2]; first compound 0.2 µM): 1.06 | relative viability ([2]; first compound 0.6325 µM): 0.545 | relative viability ([2]; first compound 2 µM): 0.557 | relative viability ([2]; first compound 6.325 µM): 0.68 | relative viability ([2]; first compound 20 µM): 0.667 | relative viability ([3]; first compound 0.2 µM): 0.878 | relative viability ([3]; first compound 0.6325 µM): 0.673 | relative viability ([3]; first compound 2 µM): 0.74 | relative viability ([3]; first compound 6.325 µM): 0.712 | relative viability ([3]; first compound 20 µM): 0.624 | relative viability ([4]; first compound 0.2 µM): 1.03 | relative viability ([4]; first compound 0.6325 µM): 0.808 | relative viability ([4]; first compound 6.325 µM): 0.805 | relative viability ([4]; first compound 20 µM): 0.729 | relative viability ([5]; first compound 0.2 µM): 0.595 | relative viability ([5]; first compound 0.6325 µM): 0.539 | relative viability ([5]; first compound 6.325 µM): 0.529 | relative viability ([5]; first compound 20 µM): 0.147 | relative viability ([6]; first compound 0.2 µM): 1.02 | relative viability ([6]; first compound 0.6325 µM): 0.714 | relative viability ([6]; first compound 2 µM): 0.906 | relative viability ([6]; first compound 6.325 µM): 1.03 | relative viability ([6]; first compound 20 µM): 0.85 | relative viability ([7]; first compound 0.2 µM): 0.65 | relative viability ([7]; first compound 0.6325 µM): 0.598 | relative viability ([7]; first compound 6.325 µM): 0.688 | relative viability ([7]; first compound 20 µM): 0.249 | relative viability ([8]; first compound 0.2 µM): 1.06 | relative viability ([8]; first compound 0.6325 µM): 0.818 | relative viability ([8]; first compound 2 µM): 0.978 | relative viability ([8]; first compound 6.325 µM): 0.988 | relative viability ([8]; first compound 20 µM): 0.917 | relative viability ([9]; first compound 0.2 µM): 0.35 | relative viability ([9]; first compound 0.6325 µM): 0.276 | relative viability ([9]; first compound 6.325 µM): 0.24 | relative viability ([9]; first compound 20 µM): 0.18 | relative viability ([10]; first compound 0.2 µM): 0.761 | relative viability ([10]; first compound 0.6325 µM): 0.624 | relative viability ([10]; first compound 2 µM): 0.303 | relative viability ([10]; first compound 6.325 µM): 0.477 | relative viability ([10]; first compound 20 µM): 0.447 | relative viability ([11]; first compound 0.2 µM): 0.315 | relative viability ([11]; first compound 0.6325 µM): 0.194 | relative viability ([11]; first compound 2 µM): 0.298 | relative viability ([11]; first compound 6.325 µM): 0.284 | relative viability ([11]; first compound 20 µM): 0.189 | relative viability ([12]; first compound 2 µM): 0.277 | relative viability ([12]; first compound 6.325 µM): 0.237 | relative viability ([12]; first compound 20 µM): 0.146 | relative viability ([13]; first compound 0.2 µM): 0.216 | relative viability ([13]; first compound 0.6325 µM): 0.233 | relative viability ([13]; first compound 2 µM): 0.203 | relative viability ([13]; first compound 6.325 µM): 0.221 | relative viability ([13]; first compound 20 µM): 0.0965 | relative viability ([14]; first compound 0.2 µM): 0.534 | relative viability ([14]; first compound 0.6325 µM): 0.375 | relative viability ([14]; first compound 2 µM): 0.393 | relative viability ([14]; first compound 6.325 µM): 0.607 | relative viability ([14]; first compound 20 µM): 0.171 | relative viability ([15]; first compound 0.2 µM): 0.0725 | relative viability ([15]; first compound 0.6325 µM): 0.0963 | relative viability ([15]; first compound 2 µM): 0.0983 | relative viability ([15]; first compound 6.325 µM): 0.0835 | relative viability ([15]; first compound 20 µM): 0.0732 | relative viability ([16]; first compound 0.2 µM): 0.615 | relative viability ([16]; first compound 0.6325 µM): 0.328 | relative viability ([16]; first compound 2 µM): 0.236 | relative viability ([16]; first compound 6.325 µM): 0.426 | relative viability ([16]; first compound 20 µM): 0.213 | relative viability ([17]; first compound 0.2 µM): 0.24 | relative viability ([17]; first compound 0.6325 µM): 0.234 | relative viability ([17]; first compound 2 µM): 0.22 | relative viability ([17]; first compound 6.325 µM): 0.209 | relative viability ([17]; first compound 20 µM): 0.0464 | relative viability ([18]; first compound 0.2 µM): 1.04 | relative viability ([18]; first compound 0.6325 µM): 0.579 | relative viability ([18]; first compound 2 µM): 0.885 | relative viability ([18]; first compound 6.325 µM): 0.829 | relative viability ([18]; first compound 20 µM): 0.746 | relative viability ([19]; first compound 0.2 µM): 0.314 | relative viability ([19]; first compound 0.6325 µM): 0.312 | relative viability ([19]; first compound 2 µM): 0.354 | relative viability ([19]; first compound 6.325 µM): 0.416 | relative viability ([19]; first compound 20 µM): 0.287 | relative viability ([20]; first compound 0.2 µM): 0.33 | relative viability ([20]; first compound 0.6325 µM): 0.171 | relative viability ([20]; first compound 2 µM): 0.21 | relative viability ([20]; first compound 6.325 µM): 0.252 | relative viability ([20]; first compound 20 µM): 0.154 | relative viability ([21]; first compound 0.2 µM): 0.214 | relative viability ([21]; first compound 0.6325 µM): 0.215 | relative viability ([21]; first compound 2 µM): 0.186 | relative viability ([21]; first compound 6.325 µM): 0.2 | relative viability ([21]; first compound 20 µM): 0.203 | relative viability ([22]; first compound 0.2 µM): 0.974 | relative viability ([22]; first compound 0.6325 µM): 0.809 | relative viability ([22]; first compound 6.325 µM): 0.958 | relative viability ([22]; first compound 20 µM): 0.556
